Measurements published in article PMC6444227, “Pharmacological Evaluation of Secondary Metabolites and Their Simultaneous Determination in the Arabian Medicinal Plant Plicosepalus curviflorus Using HPTLC Validated Method” (Journal of Analytical Methods in Chemistry, 2019).
Values after ≈ are worked out from the molar mass of the structure shown. Values belong to the compound of their own block, whether it stands above or below them.

Key:
[1] = tested on: iNOS; experiment: iNOS inhibition, nitrite level in LPS-treated macrophages (Griess); format: cell-based, mouse
Procedure: Mouse macrophage (RAW264.7) cells were seeded in the wells of 96-well plates followed by 24 hrs for confluency according to the method described previously. The test samples were treated with LPS (5 μg/mL) and followed by 24-hour incubation as well. The nitrite level in cell supernatant was measured by Griess reagent. The dose response curves gave indication for IC50 values. Parthenolide was used as positive control.

[2] = tested on: four cancerous cell lines as well as the two normal cell lines; experiment: Cytotoxicity, whole panel; format: cell-based; details: all cell lines
Procedure: (§1) Four human cancer cell lines (SK-OV-3, SK-MEL, BT-549 and KB) and two noncancerous kidney cell lines (VERO and LLC-PK1) were measured in the in vitro cytotoxic study. Test samples were added on the cell lines with variable concentrations, followed by 48 h incubation. According to the Borenfreund method, the cell viability was determined at the end of incubation, using doxorubicin as a positive control.

[3] = target: T1, PPARγ (Homo sapiens, UniProt P37231); experiment: PPARγ reporter gene assay (luciferase fold induction); format: cell-based
T1 construct: expressed in transfected cells
T1 sequence (P37231 1-505): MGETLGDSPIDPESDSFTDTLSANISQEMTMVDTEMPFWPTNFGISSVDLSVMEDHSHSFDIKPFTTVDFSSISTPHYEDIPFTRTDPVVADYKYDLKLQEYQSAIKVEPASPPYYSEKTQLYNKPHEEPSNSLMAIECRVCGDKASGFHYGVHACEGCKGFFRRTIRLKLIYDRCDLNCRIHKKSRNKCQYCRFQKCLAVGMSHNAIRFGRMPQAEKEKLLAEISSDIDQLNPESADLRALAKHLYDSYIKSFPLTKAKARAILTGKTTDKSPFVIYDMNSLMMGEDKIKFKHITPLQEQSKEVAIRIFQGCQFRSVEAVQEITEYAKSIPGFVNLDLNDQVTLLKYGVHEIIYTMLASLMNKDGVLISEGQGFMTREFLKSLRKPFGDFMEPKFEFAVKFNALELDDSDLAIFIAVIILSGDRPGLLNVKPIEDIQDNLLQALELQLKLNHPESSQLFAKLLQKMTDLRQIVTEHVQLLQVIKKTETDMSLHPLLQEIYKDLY
Procedure: (§2) A reporter gene assay was carried out as described previously. Briefly, upon confluency, the different concentrations of the test samples were exposed to transfected cells for 24 hrs. Vehicle control was taken into consideration when the fold induction in luciferase activity was calculated. Both rosiglitazone and ciprofibrate were used as control drugs for PPARα and PPARγ, respectively.
(§3) Fold induction in the PPAR activity was detected in response to the methanol fraction and pure compounds according to untreated controls. A fold induction of 1.5 means a 50% increase in PPAR activity. […] Several studies have been carried out with the aim of exploring the potential of selective PPARγ modulators. The dual activator effect of P2 is in agreement with previous literature.

[4] = tested on: HepG2 cells; experiment: Cellular antioxidant assay (decrease in oxidative stress, ABAP); format: cell-based, human; details: at 250 µg/mL for pure compounds
Procedure: Human hepatoma cell line (HepG2) was the cell line of choice in this study according to the previously described method. At a density of 60,000 cells/well, the HepG2 cells were seeded in a 96-well plate and incubated for 24 h for confluency. PBS was used for washing the cells, followed by samples treatment. The SpectraMax plate reader was used for reading the plates after addition of 600 μM of ABAP. The area under the curve (AUC) of fluorescence units and time were two parameters used for indication of the percent decrease in oxidative stress. Percent decrease in oxidative stress = 100 − ((AUC sample/AUC control) × 100). Quercetin was used as a positive control.

[5] = target: T2, PPARα (Homo sapiens, UniProt Q07869); experiment: PPARα reporter gene assay (luciferase fold induction); format: cell-based; details: dual activation
T2 construct: expressed in transfected cells
T2 sequence (Q07869 1-468): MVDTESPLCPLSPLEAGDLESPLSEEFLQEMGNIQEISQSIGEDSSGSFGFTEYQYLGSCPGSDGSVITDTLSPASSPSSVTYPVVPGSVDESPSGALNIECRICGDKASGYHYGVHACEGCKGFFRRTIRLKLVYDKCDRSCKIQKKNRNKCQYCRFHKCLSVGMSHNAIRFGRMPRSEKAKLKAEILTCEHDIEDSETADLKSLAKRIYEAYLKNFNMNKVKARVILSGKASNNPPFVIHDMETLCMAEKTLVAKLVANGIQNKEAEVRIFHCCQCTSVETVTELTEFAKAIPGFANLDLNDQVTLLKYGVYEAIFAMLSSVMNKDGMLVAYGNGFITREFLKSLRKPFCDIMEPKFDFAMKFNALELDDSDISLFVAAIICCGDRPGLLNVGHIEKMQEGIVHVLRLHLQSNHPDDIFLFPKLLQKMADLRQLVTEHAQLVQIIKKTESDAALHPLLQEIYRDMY
Procedure: as §2, §3

[6] = tested on: LLC-PK11; experiment: Cytotoxicity assay (Borenfreund method, 48 h); format: cell-based; details: NA = no cytotoxic activity upto 100 µg/mL, read-out: Noncancer cells IC50, LLC-PK11
Procedure: as §1

[7] = tested on: KB; experiment: Cytotoxicity assay (Borenfreund method, 48 h); format: cell-based; details: Homo sapiens, NA = no cytotoxic activity upto 100 µg/mL, read-out: Cancer cells IC50, KB
Procedure: as §1

[8] = tested on: BT-549; experiment: Cytotoxicity assay (Borenfreund method, 48 h); format: cell-based; details: Homo sapiens, NA = no cytotoxic activity upto 100 µg/mL, read-out: Cancer cells IC50, BT-549
Procedure: as §1

[9] = tested on: SK-MEL; experiment: Cytotoxicity assay (Borenfreund method, 48 h); format: cell-based; details: Homo sapiens, NA = no cytotoxic activity upto 100 µg/mL, read-out: Cancer cells IC50, SK-MEL
Procedure: as §1

[10] = tested on: VERO; experiment: Cytotoxicity assay (Borenfreund method, 48 h); format: cell-based; details: Chlorocebus sabaeus, NA = no cytotoxic activity upto 100 µg/mL, read-out: Noncancer cells IC50, VERO
Procedure: as §1

[11] = tested on: SK-OV-3; experiment: Cytotoxicity assay (Borenfreund method, 48 h); format: cell-based; details: Homo sapiens, NA = no cytotoxic activity upto 100 µg/mL, read-out: Cancer cells IC50, SK-OV-3
Procedure: as §1

[12] = tested on: NF-κB; experiment: NF-κB luciferase reporter gene assay in PMA-treated SW1353 cells; format: cell-based; details: Homo sapiens; SW1353, PMA 70 ng/mL 8 h; NA = no activity up to 100 µg/mL; read-out: NF-kB inhibition (IC50)
Procedure: According to the method described earlier, the 96-well plates with density of 1.25 × 10^5 cells per well were seeded with human chondrosarcoma cells (SW1353) transfected with NF-κB luciferase plasmid construct. After incubation for 24 h, cells were treated with the test samples for half an hour followed by PMA (70 ng/mL) for 8 h. Luciferase assay kit (Promega, Madison, WI, USA) was used for determination of luciferase activity, and parthenolide was used as the positive control in this test.

PPAR gamma agonistic activity, fold induction ([3]; dual activation): no PPAR agonistic activity | PPAR alpha agonistic activity, fold induction [5]: no PPAR agonistic activity
Compound: O=C(Oc1cc(O)cc2c1C[C@@H](O)[C@H](c1ccc(O)c(O)c1)O2)c1cc(O)c(O)c(O)c1 [Compound P3, 2S,3R-3,3′,4′,5,7-pentahydroxyflavane-5-O-gallate]
iNOS inhibition (in words) [1]: did not show any | Cytotoxicity (in words) [2]: not cytotoxic | % decrease in oxidative stress [4]: 57%

Compound: COc1cccc2c1C(=O)c1c(O)c3c(c(O)c1C2=O)C[C@@](O)(C(=O)CO)C[C@@H]3O[C@H]1C[C@H](N)[C@H](O)[C@H](C)O1 [Doxorubicin]
IC50 [6]: 0.85 mg/L (≈ 1.56 µM) | IC50 [7]: 1.85 mg/L (≈ 3.4 µM) | IC50 [8]: 1.93 mg/L (≈ 3.55 µM) | IC50 [9]: 1.23 mg/L (≈ 2.26 µM) | IC50 [10]: > 5 mg/L | IC50 [11]: 0.8 mg/L (≈ 1.47 µM)

IC50 ([1]; Mus musculus, RAW264.7, LPS 5 µg/mL, 24 h, NA = no activity up to 100 µg/mL): 0.35 ± 0.22 mg/L (≈ 1.41 µM) | IC50 [12]: 0.5 ± 0.21 mg/L (≈ 2.01 µM)
Compound: C=C1C(=O)O[C@H]2[C@H]1CC/C(C)=C/CC[C@@]1(C)O[C@@H]21 [Parthenolide, reference compound]

fold induction at 10 µM ([3]; control drug at 10 µM, read-out: Fold induction PPAR gamma): 3.7
Compound: CN(CCOc1ccc(CC2SC(=O)NC2=O)cc1)c1ccccn1 (centres unmarked) [Rosiglitazone, reference compound]
